Among the data in patent publication US20040127492A1 (Pharmacia Corporation, priority 2002, published 2004) are IC50 values, retold here.

Molecules are shown by their SMILES. Counter-ions that a name gives are not always drawn. Like-named read-outs stand apart in the source and are kept apart here.

The assay concerns the target MAPKAPK2 (MK-2) (Homo sapiens, UniProt P49137). Description: Determination of MK-2 IC50 (HSP-peptide phosphorylation, anion exchange resin capture assay). Format: biochemical. As to the method: Determination of MK-2 IC50:
Recombinant MAPKAPK2 was phosphorylated at a concentration of 42-78 μM by incubation with 0.23 μM of active p38α in 50 mM HEPES, 0.1 mM EDTA, 10 mM magnesium acetate, and 0.25 mM ATP, pH 7.5 for one hour at 30° C.
The phosphorylation of HSP-peptide ([…]) by MAPKAPK2 was measured using an anion exchange resin capture assay method. The reaction was carried out in 50 mM β-glycerolphosphate, 0.04% BSA, 10 mM magnesium acetate, 2% DMSO and 0.8 mM dithiotheritol, pH 7.5 in the presence of the HSP-peptide with 0.2 μCi [γ^33P]ATP and 0.03 mM ATP. The reaction was initiated by the addition of 15 nM MAPKAPK2 and was allowed to incubate at 30° C. for 30 min. The reaction was terminated and [γ^33P]ATP was removed from solution by the addition of 150 μl of AG 1×8 ion exchange resin in 900 mM sodium formate pH 3.0. A 50 μl aliquot of head volume was removed from the quenched reaction mixture and added to a 96-well plate, 150 μl of Microscint-40 (Packard) was added and the amount of phosphorylated-peptide was determined. Allow the Microscint to sit in the plates for 60 minutes prior to counting.
Compounds are evaluated as potential inhibitors of the MK-2 kinase by measuring their effects on MK-2 phosphorylation of the peptide substrate. Compounds may be screened initially at two concentrations prior to determination of IC50 values. Screening results are expressed as percent inhibition at the concentrations of compound tested. For IC50 value determinations, Compounds are tested at six concentrations in ten-fold serial dilutions with each concentration tested in triplicate. Results are expressed as IC50 values in micromolar. The assay is performed at a final concentration of 2% DMSO.

The mark [1] stands for this setting: Table 2, pyrazolylpyrazole MK-2 inhibitors, read-out: MK-2 Avg. IC50.
Where [2] appears, read: Table 1, phenoxypyrazole MK-2 inhibitors, read-out: MK-2 Avg, IC50.
Where [3] appears, read: Table 4, pyrimidylpyrazole MK-2 inhibitors, read-out: MK-2 Avg. IC50.

MAPKAPK2 (MK-2), sequence (P49137 whole entry, species assumed): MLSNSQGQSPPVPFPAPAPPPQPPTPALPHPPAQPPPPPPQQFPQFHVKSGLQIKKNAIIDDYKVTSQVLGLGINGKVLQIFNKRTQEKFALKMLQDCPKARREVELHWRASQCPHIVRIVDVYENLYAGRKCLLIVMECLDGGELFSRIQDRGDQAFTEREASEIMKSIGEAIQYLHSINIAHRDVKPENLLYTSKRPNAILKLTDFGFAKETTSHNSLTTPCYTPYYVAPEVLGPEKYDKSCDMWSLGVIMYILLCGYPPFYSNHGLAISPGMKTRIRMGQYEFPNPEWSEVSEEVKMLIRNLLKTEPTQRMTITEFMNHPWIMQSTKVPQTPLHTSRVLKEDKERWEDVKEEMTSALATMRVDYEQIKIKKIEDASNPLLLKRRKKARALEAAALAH

A word on the IC50: it is the concentration at which inhibition is half-maximal. `O=C1c2c3c(nn2CC2CCCN1C2)-c1ccncc1CC3` (stereo not drawn) [Example 281]: the IC50 (read-out: MK-2 Avg. IC50) came to 191 µM.
Same read-out and setting: next, `O=C1NCCn2nc3c(c21)CCc1cnc(N2CCNCC2)cc1-3` [Example 225]: 64.9 µM.
For the compound `O=C(O)c1c2c(nn1CCCNCCN1CCCC1)-c1ccncc1CC2` [Example 174], the IC50 (read-out: MK-2 Avg. IC50) was determined as 14.6 µM.
On the same count and under the same terms, as for `O=C(O)c1c2c(nn1CCCNCCc1c[nH]c3ccccc13)-c1ccncc1CC2` [Example 165], the figure is 10.7 µM; as for `NCCCn1nc2c(c1CCl)CCc1cnccc1-2` [Example 201], 33.5 µM; as for `O=C(O)c1c2c(nn1CCCNc1cccnc1)-c1ccncc1CC2` [Example 208], 39.4 µM.
The same measure, in the same setting: as for `O=C(O)c1c2c(nn1CCCNCC(F)(F)F)-c1ccncc1CC2` [Example 218], the figure is 56.3 µM; as for `CC(C)(C)OC(=O)NC1CCN(CCCn2nc3c(c2C(=O)O)CCc2cnccc2-3)CC1` [Example 269], 149 µM.
The same measure, in the same setting: next, `NCCCn1nc2c(c1C(=O)O)CCc1c-2ccnc1Cl` [Example 179]: 16.5 µM.
For `CCOC(=O)c1[nH]nc2c1CCc1[nH]nc(SC)c1-2` [Example 65], under setting [1], the half-maximal inhibitory concentration (IC50) was at least 200 µM.
With `NC(=O)c1[nH]nc2c1CCc1[nH]nc(SCc3ccccc3)c1-2` [Example 25], the IC50 under setting [1] came out at 80.7 µM.
As for `NC(=O)C1Cn2nc3c(c2C(=O)N1)CCc1cnc(-c2cnc4ccccc4c2)cc1-3` (stereo not drawn) [Example 195], the IC50 (read-out: MK-2 Avg. IC50) worked out at 27.9 µM.
On the same count and under the same terms, next, `Cc1nccc2c1CCc1c-2nn2c1C(=O)NCCC2` [Example 186]: 20 µM; `O=C(O)c1c2c(nn1CC(O)CN1CCCC1)-c1ccncc1CC2` (stereo not drawn) [Example 272, hydrochloride]: 162 µM.
On the same count and under the same terms, next, `COc1cccc(S(=O)(=O)NCCCn2nc3c(c2C(=O)O)CCc2cnccc2-3)c1` [Example 267]: 141 µM; `FC(F)c1[nH]nc2c1CCc1cnccc1-2` [Example 244]: 96.5 µM.
Consider `COc1ccc(CC(=O)NCCCn2nc3c(c2C(=O)O)CCc2cnccc2-3)cc1` [Example 198], for which, for the setting “read-out: MK-2 Avg. IC50”, the 50% inhibitory concentration (IC50) was determined as 30.1 µM.
As for `CCC(CC)CNCCCCn1nc2c(c1C(=O)O)CCc1cnccc1-2` [Example 197], the IC50 (read-out: MK-2 Avg. IC50) is 29.4 µM.
In the case of `O=C1c2c3c(nn2CCN1CCCc1ccccc1)-c1ccncc1CC3` [Example 251], the IC50 (read-out: MK-2 Avg. IC50) is 102 µM.
On the same count and under the same terms, next, `CN1CCn2nc3c(c2C1=O)CCc1cnccc1-3` [Example 270]: 156 µM; `O=C(O)c1c2c(nn1CCCBr)-c1ccncc1CC2` [Example 188]: 21.5 µM; `CN(C)CCCn1nc2c(c1C(=O)O)CCc1cnccc1-2` [Example 177]: 15.5 µM.
For `N#Cc1cccc(NC(=O)NCCCn2nc3c(c2C(=O)O)CCc2cnccc2-3)c1` [Example 184], under “read-out: MK-2 Avg. IC50”, the 50% inhibitory concentration (IC50) came to 17.9 µM.
Take `COC(=O)c1[nH]nc2c1C(C)Cc1cc(OC)ccc1-2` (stereo not drawn) [Example 100]: under setting [2], the IC50 was over 200 µM.
In the case of `NC(=O)c1[nH]nc2c1CCc1cnccc1-2` [Example 163], the IC50 (read-out: MK-2 Avg. IC50) turned out to be 10.4 µM.
For the compound `O=C(O)c1c2c(nn1CCCNCc1cccc(Cl)c1)-c1ccncc1CC2` [Example 161], the 50% inhibitory concentration (IC50) (read-out: MK-2 Avg. IC50) came to 10.3 µM.
On the same count and under the same terms, as for `Cc1ccc(S(=O)(=O)NC(=O)NCCCn2nc3c(c2C(=O)O)CCc2cnccc2-3)cc1` [Example 233], the figure is 80.6 µM; as for `CC(C)(C)c1ccc(-c2cc3c(cn2)CCc2c-3nn3c2C(=O)NCC3)cc1` [Example 248], 101 µM; as for `O=C1NCCn2nc3c(c21)CCc1cnc(-c2cccc4ncccc24)cc1-3` [Example 246], 98.3 µM.
Consider `CCC(CC)CNCCn1nc2c(c1C(=O)O)CCc1cnccc1-2` [Example 221], for which the concentration for half-maximal inhibition (IC50) (read-out: MK-2 Avg. IC50) amounted to 62.1 µM.
Take `O=C1NCCCn2nc3c(c21)CCc1cnc(-c2ccncc2)nc1-3` [Example 9]: the half-inhibitory concentration (IC50) under setting [3] was found to be 8.62 µM.
Consider `NCCCNC(=O)c1[nH]nc2c1CCc1cnccc1-2` [Example 278], for which the concentration for half-maximal inhibition (IC50) (read-out: MK-2 Avg. IC50) is 189 µM.
Regarding `O=C(O)c1c2c(nn1CC=NO)-c1ccncc1CC2` [Example 235], for the setting “read-out: MK-2 Avg. IC50”, the IC50 was 84.3 µM.
Same read-out and setting: next, `CN(c1ccccc1)c1cc2c(cn1)CCc1c-2nn2c1C(=O)NCC2` [Example 250]: 101 µM; `O=C(O)c1c2c(nn1CCCNC1CCCC1)-c1ccncc1CC2` [Example 164]: 10.4 µM; `CSc1nccc2c1CCc1c-2nn(CCCN)c1C(=O)O` [Example 234]: 83.4 µM.
Consider `O=C(O)c1c2c(nn1CCCNC(c1ccccc1)(c1ccccc1)c1ccccc1)-c1nc(-c3ccccc3)ncc1CC2` [Example 10], for which, under setting [3], the half-maximal inhibitory concentration (IC50) turned out to be 52.2 µM.
Consider `O=C(O)c1c2c(nn1CCCNc1ccncc1)-c1ccncc1CC2` [Example 249], for which the half-maximal inhibitory concentration (IC50) (read-out: MK-2 Avg. IC50) amounted to 101 µM.
Take `COc1ccc(-c2ncc3c(n2)-c2nn4c(c2CC3)C(=O)NCCC4)cc1` [Example 8]: the IC50 under setting [3] came out at 4.52 µM.
For `c1coc(-c2[nH]nc3c2CCc2cnccc2-3)c1` [Example 214], the IC50 (read-out: MK-2 Avg. IC50) came out at 53.7 µM.
Consider `NC(=O)C1CCN(CC(O)Cn2nc3c(c2C(=O)O)CCc2cnccc2-3)CC1` (stereo not drawn) [Example 240], for which the IC50 (read-out: MK-2 Avg. IC50) amounted to 87.6 µM.
Still for that read-out and setting: as for `O=C(Cc1cccs1)NCCCn1nc2c(c1C(=O)O)CCc1cnccc1-2` [Example 226], the figure is 66.1 µM; as for `NC1CCN(CC(O)Cn2nc3c(c2C(=O)O)CCc2cnccc2-3)CC1` (stereo not drawn) [Example 266], 136 µM.
The same measure, in the same setting: as for `COc1cccc(-c2cc3c(cn2)CCc2c-3nn3c2C(=O)NCC3)c1` [Example 45], the figure is 0.322 µM.
On to `N#Cc1ccc(S(=O)(=O)NCCCn2nc3c(c2C(=O)O)CCc2cnccc2-3)cc1` [Example 262], for which the half-maximal inhibitory concentration (IC50) (read-out: MK-2 Avg. IC50) stood at 130 µM.
In the case of `CCCn1nc2c(c1C(N)=O)CCc1cnc(-c3cnc4ccccc4c3)cc1-2` [Example 252], the IC50 (read-out: MK-2 Avg. IC50) turned out to be 103 µM.
Regarding `CSc1n[nH]c2c1-c1n[nH]c(C(=O)O)c1CC2` [Example 64], under setting [1], the half-maximal inhibitory concentration (IC50) is at least 200 µM.
Take `O=C(NCCCn1nc2c(c1C(=O)O)CCc1cnccc1-2)NCc1ccccc1` [Example 176]: for the setting “read-out: MK-2 Avg. IC50”, the IC50 came out at 15.4 µM.
Still for that read-out and setting: as for `COC(=O)c1c2c(nn1CCO)-c1ccncc1CC2` [Example 271, hydrochloride], the figure is 161 µM.
Same read-out and setting: next, `CC(C)(C)CCc1cc2c(cn1)CCc1c-2nn2c1C(=O)NCC2` [Example 202]: 35.6 µM.
For `O=C1NC(C(O)CO)Cn2nc3c(c21)CCc1cnccc1-3` (stereo not drawn) [Example 167], under “read-out: MK-2 Avg. IC50”, the half-inhibitory concentration (IC50) amounted to 11.8 µM.
Turning to `O=C1NCCn2nc3c(c21)CCc1cnc(N2CCc4ccccc4C2)cc1-3` [Example 175], the IC50 (read-out: MK-2 Avg. IC50) stood at 15 µM.
Turning to `COC(=O)c1c2c(nn1CCCNC(=O)OC(C)(C)C)-c1cc(-c3cccc(Cl)c3)c(OC)cc1CC2` [Example 131], under setting [2], the IC50 was over 200 µM.
On the same count and under the same terms, as for `NCCCn1nc2c(c1C(=O)O)CCc1c-2cc(-c2cccc([N+](=O)[O-])c2)c(O)c1Cl` [Example 43], the figure is 74.3 µM.
As to `O=C1NCCCn2nc3c(c21)CCc1cnc(-c2ccccc2)nc1-3` [Example 11], under setting [3], the IC50 is 81.4 µM.
As to `COc1ccc(-c2cc3c(cn2)CCc2c-3nn3c2C(=O)NCC3)cc1` [Example 62], the half-inhibitory concentration (IC50) (read-out: MK-2 Avg. IC50) was determined as 0.587 µM.
Turning to `C=CCn1nc2c(c1C(=O)O)CCc1cnccc1-2` [Example 170], the half-maximal inhibitory concentration (IC50) (read-out: MK-2 Avg. IC50) came out at 12.6 µM.
Take `c1cc2c(cn1)CCc1c[nH]nc1-2` [Example 238]: the IC50 (read-out: MK-2 Avg. IC50) turned out to be 86.1 µM.
The same measure, in the same setting: next, `O=C1NCCn2nc3c(c21)CCc1cnc(N2CCCC2)cc1-3` [Example 189]: 21.6 µM.
The same measure, in the same setting: next, `NCCCn1nc(-c2nnn[nH]2)c2c1-c1ccncc1CC2` [Example 247]: 100 µM.
`O=S(=O)(Cc1ccc(Cl)cc1)NC1CCCn2nc3c(c21)CCc1cnccc1-3` (stereo not drawn) [Example 232]: the half-maximal inhibitory concentration (IC50) (read-out: MK-2 Avg. IC50) came out at 78.7 µM.
The same measure, in the same setting: next, `O=C1CCCn2nc3c(c21)CCc1cnccc1-3` [Example 219]: 59.5 µM.
Regarding `NC(=O)CCn1nc(C(N)=O)c2c1-c1cn[nH]c1CC2` [Example 56], under setting [1], the IC50 is at least 200 µM.
Consider `COC(=O)C1Cn2nc3c(c2C(=O)N1)CCc1cnccc1-3` (stereo not drawn) [Example 180], for which the IC50 (read-out: MK-2 Avg. IC50) was 16.5 µM.
In the case of `O=C(O)c1c2c(nn1CC=NO)-c1ccncc1CC2` [Example 229], the IC50 (read-out: MK-2 Avg. IC50) was 71 µM.
For `O=C1NCCn2nc3c(c21)CCc1c-3ccnc1Cl` [Example 194], the IC50 (read-out: MK-2 Avg. IC50) worked out at 27.7 µM.
Still for that read-out and setting: next, `NC(CCn1nc2c(c1C(=O)O)CCc1cnccc1-2)C(=O)O` (stereo not drawn) [Example 191]: 25 µM; `Cn1nc2c(c1C(=O)O)CCc1cnccc1-2` [Example 231]: 76.6 µM.
The same measure, in the same setting: next, `O=C1NCCn2nc3c(c21)CCc1cnc(CCC2CCCCC2)cc1-3` [Example 259]: 121 µM; `CC1CCCN(c2cc3c(cn2)CCc2c-3nn3c2C(=O)NCC3)C1` (stereo not drawn) [Example 236]: 84.4 µM.
The same measure, in the same setting: next, `NCCCN1CCn2nc3c(c2C1=O)CCc1cnccc1-3` [Example 216]: 54.8 µM.
For the compound `O=C1NCCn2nc3c(c21)CCc1cnc(/C=C/c2ccccc2)cc1-3` [Example 2], the half-maximal inhibitory concentration (IC50) (Table 5, other cyclic pyrazole MK-2 inhibiting compounds, read-out: MK-2 Avg. IC50) was 0.147 µM.
